Results from ChEMBL document CHEMBL5108044, “Discovery of a Novel Potent STAT3 Inhibitor HP590 with Dual p-Tyr705/Ser727 Inhibitory Activity for Gastric Cancer Treatment” (J Med Chem, 2022).
Active and inactive are the calls of the source. No cut-off for these calls is given here.

Tests used:
[1] = system: MKN-45; experiment: In vivo inhibition of STAT3 phosphorylation at Tyr705 residue in human MKN-45 cells xenografted in BALB/c nude mouse at 25 to 50 mg/kg, po qd administered for 5 weeks by western blot analysis; type: functional, organism-based; settings: dose 25-50 mg/kg
[2] = Elimination half life in ICR mouse plasma at 10 mg/kg, po measured up to 24 hrs by LC-MS/MS analysis; type: ADME, organism-based; settings: read-out: beta t1/2 (converted)
[3] = molecular target: T1, Signal transducer and activator of transcription 3 (Homo sapiens, UniProt P40763); experiment: Inhibition of STAT3 in human AGS cells assessed as downregulation of c-myc expression at 10 to 40 nM incubated for 24 hrs by RT-PCR analysis; type: cell-based; settings: dose 10-40 nM
T1 sequence (P40763 whole entry): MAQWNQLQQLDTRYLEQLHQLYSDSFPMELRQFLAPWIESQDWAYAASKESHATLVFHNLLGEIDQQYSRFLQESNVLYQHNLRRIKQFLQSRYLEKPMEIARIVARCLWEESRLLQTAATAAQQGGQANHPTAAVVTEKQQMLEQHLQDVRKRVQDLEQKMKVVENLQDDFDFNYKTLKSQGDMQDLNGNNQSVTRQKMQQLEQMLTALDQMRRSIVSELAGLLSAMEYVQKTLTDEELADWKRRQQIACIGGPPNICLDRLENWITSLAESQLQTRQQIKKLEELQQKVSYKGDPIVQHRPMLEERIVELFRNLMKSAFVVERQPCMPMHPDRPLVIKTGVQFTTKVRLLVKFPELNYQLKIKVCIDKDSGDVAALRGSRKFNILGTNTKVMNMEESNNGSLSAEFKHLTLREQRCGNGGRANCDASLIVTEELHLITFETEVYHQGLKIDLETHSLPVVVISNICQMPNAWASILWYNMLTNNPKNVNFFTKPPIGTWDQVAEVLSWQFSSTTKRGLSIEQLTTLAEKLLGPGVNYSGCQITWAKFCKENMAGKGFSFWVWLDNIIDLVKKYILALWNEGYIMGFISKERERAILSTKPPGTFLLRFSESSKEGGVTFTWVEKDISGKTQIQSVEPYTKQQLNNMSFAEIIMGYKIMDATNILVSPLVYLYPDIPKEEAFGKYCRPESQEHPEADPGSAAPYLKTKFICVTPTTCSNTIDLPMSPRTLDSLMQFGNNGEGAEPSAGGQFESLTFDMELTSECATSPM

[4] = system: MKN-45; experiment: Antiproliferative activity against human MKN-45 cells assessed as reduction in cell viability incubated for 72 hrs by MTS assay; type: functional, cell-based; settings: MKN-45, 72 h
[5] = system: MGC-803; experiment: Potency index, ratio of IC50 for BBI608 to IC50 for test compound for antiproliferative activity against human MGC-803 cells assessed as reduction in cell viability incubated for 72 hrs by MTS assay; type: functional
[6] = molecular target: T1, Signal transducer and activator of transcription 3; experiment: Inhibition of STAT3 in human MGC-803 cells assessed as downregulation of cyclin D1 expression incubated up to 24 hrs by western blot analysis; type: cell-based; settings: dose <= 40.0 nM, DDE = dose-dependent effect
[7] = system: MKN-45; experiment: Induction of apoptosis in human MKN-45 cells assessed as viable cells at 10 nM incubated for 48 hrs by FITC-annexin V/propidium iodide staining based flow cytometry (reference value: 68%); type: functional; settings: read-out: Activity
[8] = molecular target: T1, Signal transducer and activator of transcription 3; experiment: Inhibition of STAT3 in human GES1cells assessed as downregulation of Cyclin D1 expression at 10 to 40 nM incubated for 24 hrs by RT-PCR analysis; type: cell-based; settings: GES1, dose 10-40 nM
[9] = Volume of distribution at steady state in ICR mouse plasma at 1 mg/kg, iv measured up to 24 hrs by LC-MS/MS analysis; type: ADME, organism-based; settings: read-out: Vdss
[10] = molecular target: Proto-oncogene tyrosine-protein kinase Src (Homo sapiens, UniProt P12931); experiment: Inhibition of SRC (unknown origin)
Proto-oncogene tyrosine-protein kinase Src, sequence (P12931 2-536 limits assumed): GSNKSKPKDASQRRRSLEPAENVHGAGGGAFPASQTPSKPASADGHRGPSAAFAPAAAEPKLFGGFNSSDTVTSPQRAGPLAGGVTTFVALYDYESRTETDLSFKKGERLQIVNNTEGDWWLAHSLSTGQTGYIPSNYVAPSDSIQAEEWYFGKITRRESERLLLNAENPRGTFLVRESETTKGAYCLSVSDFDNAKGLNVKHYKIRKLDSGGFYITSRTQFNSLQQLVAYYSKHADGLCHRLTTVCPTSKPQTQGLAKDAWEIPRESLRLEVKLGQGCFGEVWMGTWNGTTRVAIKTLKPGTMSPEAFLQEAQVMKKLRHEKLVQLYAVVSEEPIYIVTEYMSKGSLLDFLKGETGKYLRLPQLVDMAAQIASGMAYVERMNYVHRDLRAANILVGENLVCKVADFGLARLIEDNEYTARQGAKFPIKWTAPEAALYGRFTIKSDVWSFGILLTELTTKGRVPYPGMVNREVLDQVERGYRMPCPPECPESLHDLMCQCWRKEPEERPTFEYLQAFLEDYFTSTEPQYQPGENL

[11] = AUC (0 to infinity) in ICR mouse plasma at 10 mg/kg, po measured up to 24 hrs by LC-MS/MS analysis; type: ADME, organism-based; design: dose 10 mg/kg, time < 24 hrs, route po
[12] = system: MKN-45; experiment: In vivo inhibition of STAT3 phosphorylation at Ser727 residue in human MKN-45 cells xenografted in BALB/c nude mouse at 25 to 50 mg/kg, po qd administered for 5 weeks by western blot analysis; type: functional, organism-based; settings: dose 25-50 mg/kg
[13] = system: MKN-45; experiment: Induction of apoptosis in human MKN-45 cells assessed as necrotic cells 5 nM incubated for 48 hrs by FITC-annexin V/propidium iodide staining based flow cytometry (reference value: 10.3%); type: functional
[14] = system: MKN-45; experiment: Antitumor activity against human MKN-45 cells xenografted in BALB/c nude mouse assessed as reduction in Ki67 gene expression at 25 to 50 mg/kg, po qd administered for 5 weeks immunohistochemical analysis; type: functional, organism-based; settings: dose 25-50 mg/kg
[15] = system: MKN-45; experiment: Inhibition of mitochondrial respiration in human MKN-45 cells assessed as decrease in basal oxygen consumption rate at 1 to 100 nM incubated for 1 hr by Seahorse XF24 extracellular flux analyzer; type: functional, cell-based; settings: dose 1-100 nM
[16] = molecular target: T1, Signal transducer and activator of transcription 3; experiment: Binding affinity to human STAT3 transfected in MKN-45 cells assessed as change in melting temperature at 5 uM by thermal shift assay; type: cell-based
[17] = Inhibition of ATP production in human MKN-45 cells incubated for 20 to 24 hrs by ATP assay kit method; type: functional, cell-based
[18] = Toxicity in […] mouse xenografted with human MKN-45 cells assessed as lung damage at 25 to 50 mg/kg, po qd administered for 5 weeks by H and E staining based analysis; type: organism-based; settings: in vivo, 840 h, dose 25-50 mg/kg
[19] = system: MGC-803; experiment: Inhibition of colony formation in STAT3 knockdown human MGC-803 cells assessed as reduction in number of colonies incubated for 5 to 7 days by crystal violet staining based assay; type: functional, cell-based; settings: time 5-7 day
[20] = system: AGS; experiment: Potency index, ratio of IC50 for BBI608 to IC50 for test compound for antiproliferative activity against human AGS cells assessed as reduction in cell viability incubated for 72 hrs by MTS assay; type: functional
[21] = molecular target: T1, Signal transducer and activator of transcription 3; experiment: Inhibition of STAT3 phosphorylation at Tyr705 residue in human AGS cells incubated upto 24 hrs by Western blotting analysis; type: cell-based; settings: dose <= 40.0 nM, DDE = dose-dependent effect
[22] = molecular target: T2, Mitogen-activated protein kinase 13 (Homo sapiens, UniProt O15264); experiment: Inhibition of p38delta (unknown origin)
T2 sequence (O15264 whole entry): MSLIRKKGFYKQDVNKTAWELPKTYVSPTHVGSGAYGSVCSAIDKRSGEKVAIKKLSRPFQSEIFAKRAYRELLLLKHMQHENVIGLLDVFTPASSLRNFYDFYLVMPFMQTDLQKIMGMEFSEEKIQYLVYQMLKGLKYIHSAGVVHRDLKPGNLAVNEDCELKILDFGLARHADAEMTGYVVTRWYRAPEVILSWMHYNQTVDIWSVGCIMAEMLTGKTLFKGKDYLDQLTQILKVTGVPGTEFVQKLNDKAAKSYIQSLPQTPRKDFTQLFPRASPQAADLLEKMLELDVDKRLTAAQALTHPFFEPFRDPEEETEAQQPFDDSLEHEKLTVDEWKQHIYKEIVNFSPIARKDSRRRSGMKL

[23] = Toxicity in BALB/c nude mouse xenografted with human MKN-45 cells assessed as spleen damage at 25 to 50 mg/kg, po qd administered for 5 weeks by H and E staining based analysis; type: organism-based; settings: in vivo, 840 h, dose 25-50 mg/kg
[24] = molecular target: T1, Signal transducer and activator of transcription 3; experiment: Inhibition of STAT3 in human MKN-45 cells assessed as downregulation of cyclin D1 expression at 10 to 40 nM incubated for 24 hrs by RT-PCR analysis; type: cell-based; settings: dose 10-40 nM
[25] = Toxicity in […] mouse xenografted with human MKN-45 cells assessed as spleen damage at 25 to 50 mg/kg, po qd administered for 5 weeks by H and E staining based analysis; type: organism-based; settings: in vivo, 840 h, dose 25-50 mg/kg
[26] = molecular target: T1, Signal transducer and activator of transcription 3; experiment: Inhibition of STAT3 in human AGS cells assessed as downregulation of cyclin D1 expression incubated up to 24 hrs by western blot analysis; type: cell-based; settings: dose <= 40.0 nM, DDE = dose-dependent effect
[27] = system: MKN-45; experiment: In vivo inhibition of STAT3 in human MKN-45 cells xenografted in BALB/c nude mouse assessed as reduction in STAT3 gene expression at 25 to 50 mg/kg, po qd administered for 5 weeks by Western blot analysis; type: functional, organism-based; settings: dose 25-50 mg/kg
[28] = system: AGS; experiment: Induction of apoptosis in human AGS cells assessed as late apoptic cells 10 nM incubated for 48 hrs by FITC-annexin V/propidium iodide staining based flow cytometry (reference value: 9.56%); type: functional
[29] = AUC (0 to t) in ICR mouse plasma at 1 mg/kg, iv measured up to 24 hrs by LC-MS/MS analysis; type: ADME, organism-based; design: dose 1 mg/kg, time < 24 hrs, route iv
[30] = system: AGS; experiment: Induction of apoptosis in human AGS cells assessed as necrotic cells 10 nM incubated for 48 hrs by FITC-annexin V/propidium iodide staining based flow cytometry (reference value: 2.70%); type: functional

O=C(c1ccc(-c2noc(-c3ccc(C(F)(F)F)cc3)n2)cc1)N1CCN(Cc2ccc(OCC(F)(F)F)cc2)CC1
inhibition [1]: Active
half-life [2]: 16 h
inhibition [3]: Active
IC50 [4]: 9.3 nM
Ratio IC50 [5]: 30
inhibition [6]: Dde
viability at 0.01 µM [7]: 68.5%
inhibition [8]: Active
Vd [9]: 6.56 L/kg
IC50 [10]: > 10000 nM
AUC(0-inf) [11]: 15500 ng·h/mL
inhibition [12]: Active
Activity [13]: 8.54%
Activity [14]: Active
inhibition [15]: Active
Activity [16]: Active
IC50 [17]: 24.7 nM
Activity [18]: Non-Toxic
inhibition [19]: Active
Ratio IC50 [20]: 30
inhibition [21]: Dde
IC50 [22]: > 10000 nM
Activity [23]: Non-Toxic
inhibition [24]: Active
Activity [25]: Non-Toxic
inhibition [26]: Dde
inhibition [27]: Active
Activity [28]: 10.4%
AUC(0-t) at 24 h [29]: 1730 ng·h/mL
Activity [30]: 4.79%
